# Biological target: GABA-A receptor; anion channel
# Assay: Inhibition of [3H]-Ro- 15-1788 binding to GABA-A benzodiazepine receptor in rat brain membrane
# Format: cell membranes
row,SMILES,IC50 [µM]
1,O=c1c2cnc3c(OCc4ccccc4)cccc3c2[nH]n1-c1ccccc1,> 1
2,COc1cccc2ncc3c(=O)n(-c4ccccc4)[nH]c3c12,0.00068
3,O=c1c2cnc3cc(OCc4ccccc4)ccc3c2[nH]n1-c1ccccc1,> 1
4,O=c1c2cnc3cccc(OCc4ccccc4)c3c2[nH]n1-c1ccccc1,> 1000
5,O=c1c2cnc3ccc(OCc4ccccc4)cc3c2[nH]n1-c1ccc(Cl)cc1,0.0523
6,O=c1c2cnc3cccc(O)c3c2[nH]n1-c1ccccc1,0.00074
7,O=c1c2cnc3ccc(OCc4ccccc4)cc3c2[nH]n1-c1ccccc1,0.0037

# From ChEMBL document CHEMBL1128271, “Computer-aided molecular modeling, synthesis, and biological evaluation of 8-(benzyloxy)-2-phenylpyrazolo[4,3-c]quinoline as a novel benzodiazepine receptor agonist ligand” (J Med Chem, 1995)
